The results in this text go back to US20230339970A1, “CASEIN KINASE 1 DELTA MODULATORS” (priority 2020, published 2023).

Assay [1] concerns the target T1, human recombinant GST cleaved CSNK1D (Homo sapiens, UniProt P48730).
T1 construct: GST (cleaved yes); purchased University of Dundee clone DU 19064
The experiment in a line: Purified Enzyme Assay (ADP-Glo CSNK1D Kinase Assay). The format is biochemical. The note with it: 2 nM CSNK1D; peptide substrate 150 μM; ATP 20 μM; 45 minutes at room temperature. The method in brief:
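GST-cleaved human recombinant CSNK1D phosphorylates peptide PLSRTL-pS-VASLPGL with ATP; compounds added in dose-response, 45 min at room temperature. ADP formed measured by ADP-Glo luminescence and converted to percent activity.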

The target of the next assay is T2, human CSNK1D (Homo sapiens, UniProt P48730).
T2 construct: expressed in transfected cells
The experiment in a line: Whole Cell nBRET CSNK1D Binding Assay. The note with it: living CHO cells stably expressing human CSNK1D tagged with nanoluciferase; NanoBret tracer 130 nM; 2 hours at 37 C.

Where only a bound is given, the exact number is not on record here.

T1 sequence (P48730 whole entry): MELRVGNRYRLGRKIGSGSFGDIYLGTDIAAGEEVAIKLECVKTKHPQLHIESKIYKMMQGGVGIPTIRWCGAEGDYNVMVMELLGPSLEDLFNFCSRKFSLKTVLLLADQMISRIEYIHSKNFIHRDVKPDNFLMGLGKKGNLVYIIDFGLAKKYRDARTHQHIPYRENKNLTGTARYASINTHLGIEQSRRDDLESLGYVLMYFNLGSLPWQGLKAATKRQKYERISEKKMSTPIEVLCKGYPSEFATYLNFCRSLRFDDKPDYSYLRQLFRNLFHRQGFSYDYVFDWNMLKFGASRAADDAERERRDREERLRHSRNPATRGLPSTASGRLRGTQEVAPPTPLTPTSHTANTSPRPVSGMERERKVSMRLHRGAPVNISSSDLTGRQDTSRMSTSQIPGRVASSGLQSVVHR
T2 sequence (P48730 whole entry): as above

One may read the IC50 as the concentration at which inhibition is half-maximal. As to `Fc1cc(-c2nn3c(c2-c2ccnc4[nH]ncc24)COCC3)ccc1Cl` [Example 72, 2-(4-Chloro-3-fluoro-phenyl)-3-(1H-pyrazolo[3,4-b]pyridin-4-yl)-6,7-dihydro-4H-pyrazolo[5,1-c][1,4]oxazine], the results for the IC50 (in assay [1]; on human CSNK1D) were 54 nM and 482 nM, respectively.
The matching figures for `Cc1cc(-c2c(-c3ccc(Cl)c(F)c3)nn3c2COCC3)c2cn[nH]c2n1` [Example 73, 2-(4-Chloro-3-fluoro-phenyl)-3-(6-methyl-1H-pyrazolo[3,4-b]pyridin-4-yl)-6,7-dihydro-4H-pyrazolo[5,1-c][1,4]oxazine]: 120 nM and 569 nM.
The matching figures for `Fc1ccc(-c2nn3c(c2-c2ccncc2)COCC3)nc1` [Example 74, 2-(5-Fluoro-2-pyridyl)-3-(4-pyridyl)-6,7-dihydro-4H-pyrazolo[5,1-c][1,4]oxazine]: 205 nM and 2410 nM.
The matching figures for `Fc1ccc(-c2nn3c(c2-c2ccnc4[nH]c(C(F)F)cc24)COCC3)nc1` [Example 75, 3-(2-(Difluoromethyl)-1H-pyrrolo[2,3-b]pyridin-4-yl)-2-(5-fluoropyridin-2-yl)-6,7-dihydro-4H-pyrazolo[5,1-c][1,4]oxazine]: 15 nM and more than 10000 nM.
Turning to `Fc1cncc(-c2nn3c(c2-c2ccnc4[nH]ncc24)COCC3)c1` [Example 76, 2-(5-Fluoro-3-pyridyl)-3-(1H-pyrazolo[3,4-b]pyridin-4-yl)-6,7-dihydro-4H-pyrazolo[5,1-c][1,4]oxazine], the values for the IC50 (in assay [1]; on human CSNK1D) were 168 nM and 2930 nM, respectively.
The matching figures for `Cc1cc(-c2c(-c3cncc(F)c3)nn3c2COCC3)c2cn[nH]c2n1` [Example 77, 2-(5-Fluoro-3-pyridyl)-3-(6-methyl-1H-pyrazolo[3,4-b]pyridin-4-yl)-6,7-dihydro-4H-pyrazolo[5,1-c][1,4]oxazine]: 116 nM and 2320 nM.
`Fc1ccc(-c2nn3c(c2-c2ccnc4[nH]ncc24)COCC3)nc1` [Example 78, 2-(5-Fluoro-2-pyridyl)-3-(1H-pyrazolo[3,4-b]pyridin-4-yl)-6,7-dihydro-4H-pyrazolo[5,1-c][1,4]oxazine]: the IC50 in assay [1] came to 15 nM; at human CSNK1D it was 337 nM.
The matching figures for `Cc1cc(-c2c(-c3ccc(F)cn3)nn3c2COCC3)c2cn[nH]c2n1` [Example 79, 2-(5-Fluoro-2-pyridyl)-3-(6-methyl-1H-pyrazolo[3,4-b]pyridin-4-yl)-6,7-dihydro-4H-pyrazolo[5,1-c][1,4]oxazine]: 7 nM and 227 nM.
Regarding `C[C@H]1OCCn2nc(-c3ccc(F)cn3)c(-c3ccnc4[nH]ccc34)c21` [Example 80, (R)-2-(5-Fluoropyridin-2-yl)-4-methyl-3-(1H-pyrrolo[2,3-b]pyridin-4-yl)-6,7-dihydro-4H-pyrazolo[5,1-c][1,4]oxazine], the half-inhibitory concentration (IC50) in assay [1] stood at 18 nM; on human CSNK1D it was 3060 nM.
For `CC1COCc2c(-c3ccnc(CO)c3)c(-c3ccc(F)cc3)nn21` (stereo not drawn) [Example 90, (4-(2-(4-Fluorophenyl)-7-methyl-6,7-dihydro-4H-pyrazolo[5,1-c][1,4]oxazin-3-yl)pyridin-2-yl)methanol], in that order: 16 nM and 352 nM.
The matching figures for `Fc1ccc(-c2nn3c(c2-c2ccnc4[nH]ncc24)CO[C@H](C(F)(F)F)C3)cc1` [Example 100, (S)-2-(4-Fluorophenyl)-3-(1H-pyrazolo[3,4-b]pyridin-4-yl)-6-(trifluoromethyl)-6,7-dihydro-4H-pyrazolo[5,1-c][1,4]oxazine]: 55 nM and 697 nM.
On to `Fc1ccc(-c2nn3c(c2-c2ccnc4[nH]ncc24)CO[C@@H](C(F)(F)F)C3)cc1` [Example 101, (R)-2-(4-Fluorophenyl)-3-(1H-pyrazolo[3,4-b]pyridin-4-yl)-6-(trifluoromethyl)-6,7-dihydro-4H-pyrazolo[5,1-c][1,4]oxazine], for which the IC50 in assay [1] was determined as 2 nM; at human CSNK1D it was 24 nM.
